# According to publication PMC4171606, “A novel copper(I) complex induces ER-stress-mediated apoptosis and sensitizes B-acute lymphoblastic leukemia cells to chemotherapeutic agents” (Oncotarget, 2014):
# What was measured:
# Type in all cases: cell-based, human
# [1] = system: ubiquitinated proteins; test: Western blot, Ubiquitin accumulation
# Experimental: FIGURE 3 CP treatment affects Ubiquitin Proteasome System (UPS) 26S proteasome (100 μg) semipurified from (A) SEM and (B) RS4;11 cells was incubated for 60 min at 37 °C with CP at different concentrations. Chymotrypsin (CT), trypsin (T) and peptidyl glutamyl peptide hydrolyzing (PGPH) catalytic activity were measured fluorimetrically (excitation 370, nm emission 460) by following the release of free AMC from synthetic substrates N-Suc-Leu-Leu-Val-Tyr-AMC, Boc-Gln-Ala-Arg-AMC and Z-Leu-Leu-Glu-AMC, specific for CT, T and PGPH activity, respectively. (C) Cells were incubated with CP 2.5 μM for the indicated times and then western blot analyses were performed to evaluate Ubiquitin accumulation.
# In normal conditions, misfolded proteins in the ER are driven to the cytoplasm, where upon ubiquitination, are degraded by the proteasome system. […] To assess if CP worked as other proteasome inhibitors, we evaluated the accumulation of ubiquitin after 1.5, 3, and 6 h of treatment.
# (§1) Cells were treated with CP and, after different times, were collected, centrifuged and washed with ice cold phosphate-buffered saline (PBS). The pellet was then resuspended in lysis buffer as described. The protein concentration in the supernatant was determined using the BCA protein assay (Pierce, Italy). […]
# [2] = system: GRP78, CHOP, PARP, caspase-3; test: Western blot on blast cells from B-ALL patients; conditions: CP 2.5 μM, 12 h
# Experimental: FIGURE 6 CP effects on B-ALL primary cultures (A) Blast cells from six B-ALL patients were incubated for 24 h with different concentrations of CP. For the sake of comparison CD19^+ cells from peripheral blood of healthy donors, and PBMC were also incubated with CP in the presence or absence of PHA. Cell viability were assayed by MTT analysis. Data are represented as mean ± S.E.M of four independent experiments. (B) Bone marrow cells from healthy donors were treated for 24 h with CP (2.5 μM and 5 μM). Cell viability was evaluated on the whole population by flow cytometry after staining the cells with Annexin-V-FITC and PI. are represented as mean ± S.E.M of 3 independent experiments. (C) Western Blot analysis of GRP78 and CHOP expression, PARP cleavage and caspase-3 activation, on protein extracts of blast cells from B-ALL patients treated with CP (2.5 μM) for 12 h.
# as §1, with “Italy). Equal amounts of protein (10 μg) were resolved using SDS-PAGE gel electrophoresis (Criterion precast Tris-HCl gel, BioRad, Italy) and transferred to PVDF Hybond-p membranes (GE Healthcare, Italy).” for “Italy).”
# [3] = system: GRP78; test: Western blot, ER stress marker GRP78
# Experimental: Moreover we found an increase in CHOP expression starting from 3 h of CP treatment. […] Whilst GRP78, due to its chaperon activity, exerts a protective function, CHOP promotes ER-stress cell death, thus the rapid activation of pro-death signals and the late activation of pro-survival chaperone GRP78 could explain the commitment toward apoptosis induced by CP. Moreover, in unresolvable stress conditions, an increased CHOP expression has been correlated to the induction of the expression of many apoptotic genes and to the down-regulation prosurvival genes, such as Bcl-2 [30].
# FIGURE 4 CP induces ER stress Western Blot analysis showing expression of GRP78 and CHOP in SEM (A) and in RS4;11 (B) cells. Cells were treated with CP 2.5 μM for the indicated times. (C) PCR analysis showing the induction of XBP1 splicing in SEM and RS4;11 cells. Cells were treated with CP (2.5 μM) or Tunicamycin (2 μg/ml) as positive control for 12 h.
# as §1
structure (smiles),measurement,setting,value
"F[P-](F)(F)(F)(F)F.OCP(CO)CO.OCP(CO)CO.OCP(CO)CO.OCP(CO)CO.[Cu+] [CP, [Cu(thp)4][PF6]]",onset of accumulation of ubiquitinated proteins,"[1]; RS4;11, CP 2.5 μM",≥ 3 h
same,onset of accumulation of ubiquitinated proteins,"[1]; SEM, CP 2.5 μM",≥ 1.5 h
same,caspase-3 activation and PARP cleavage,[2]; patient cells,induced caspase-3 activation and PARP cleavage
same,GRP-78 and CHOP expression,[2]; primary cultures,significant increase in the expression of both these markers
same,time of remarkable increase of GRP78 expression,"[3]; RS4;11, CP 2.5 μM",12 h
same,time of remarkable increase of GRP78 expression,"[3]; SEM, CP 2.5 μM",6 h
